Experimental data published in publication PMC5224920, “Assessing the mechanism and therapeutic potential of modulators of the human Mediator complex-associated protein kinases” (eLife, 2016).

Tested on: 12 single or co-culture in vitro tissue models of primary cells
Test: Culture/co-culture cell model panel, extracellular biomarkers (DiscoveRx); as to CCL2/MCP-1: reference of the scale not given here; as to CXCL8/IL-8: reference of the scale not given here; as to CXCL9/MIG: reference of the scale not given here; as to IL-1alpha: reference of the scale not given here; as to PBMC Cytotoxicity: reference of the scale not given here; as to SRB: reference of the scale not given here
Type: cell-based, human

Cc1n[nH]c2ncc(C(=O)N3CCC[C@H]3c3ccc(Cl)cc3)cc12 [CMPD4]
tPA (BENo, 3.70E2 nM): -0.062
uPA (BENo, 3.70E2 nM): -0.019
CCL26/Eotaxin-3 (BENo, 4.12E1 nM): 0.012
CD54/ICAM-1 (BENo, 4.12E1 nM): -0.077
CD87/uPAR (BENo, 4.12E1 nM): -0.027
CXCL8/IL-8 (BENo, 4.12E1 nM): 0.020
CXCL9/MIG (BENo, 4.12E1 nM): -0.004
CXCL10/IP-10 (BENo, 4.12E1 nM): -0.033
CXCL11/I-TAC (BENo, 4.12E1 nM): -0.036
EGFR (BENo, 4.12E1 nM): 0.00426
HLA-DR (BENo, 4.12E1 nM): -0.016
IL-1alpha (BENo, 4.12E1 nM): 0.010
Keratin 8/18 (BENo, 4.12E1 nM): -0.010
MMP-1 (BENo, 4.12E1 nM): -0.031
MMP-9 (BENo, 4.12E1 nM): -0.003
PAI-I (BENo, 4.12E1 nM): -0.067
SRB (BENo, 4.12E1 nM): 0.00253
tPA (BENo, 4.12E1 nM): -0.061
uPA (BENo, 4.12E1 nM): -0.015
CCL26/Eotaxin-3 (BENo, 4.57E0 nM): 0.029
CD54/ICAM-1 (BENo, 4.57E0 nM): -0.040
CD87/uPAR (BENo, 4.57E0 nM): 0.028
CXCL8/IL-8 (BENo, 4.57E0 nM): 0.039
CXCL9/MIG (BENo, 4.57E0 nM): 0.050
CXCL10/IP-10 (BENo, 4.57E0 nM): 0.057
CXCL11/I-TAC (BENo, 4.57E0 nM): -0.035
EGFR (BENo, 4.57E0 nM): 0.015
HLA-DR (BENo, 4.57E0 nM): 0.068
IL-1alpha (BENo, 4.57E0 nM): -0.00546
Keratin 8/18 (BENo, 4.57E0 nM): -0.020
MMP-1 (BENo, 4.57E0 nM): -0.009
MMP-9 (BENo, 4.57E0 nM): -0.020
PAI-I (BENo, 4.57E0 nM): -0.00037
SRB (BENo, 4.57E0 nM): 0.018
tPA (BENo, 4.57E0 nM): 0.003
uPA (BENo, 4.57E0 nM): -0.020
CCL2/MCP-1 (BF4T, 1.00E4 nM): -0.010
CCL26/Eotaxin-3 (BF4T, 1.00E4 nM): -0.144
CD54/ICAM-1 (BF4T, 1.00E4 nM): -0.092
CD90 (BF4T, 1.00E4 nM): -0.00366
CD106/VCAM-1 (BF4T, 1.00E4 nM): -0.026
CXCL8/IL-8 (BF4T, 1.00E4 nM): 0.017
IL-1alpha (BF4T, 1.00E4 nM): -0.039
Keratin 8/18 (BF4T, 1.00E4 nM): -0.020
MMP-1 (BF4T, 1.00E4 nM): -0.016
MMP-3 (BF4T, 1.00E4 nM): 0.014
MMP-9 (BF4T, 1.00E4 nM): -0.031
PAI-I (BF4T, 1.00E4 nM): -0.059
SRB (BF4T, 1.00E4 nM): 0.004
tPA (BF4T, 1.00E4 nM): -0.022
uPA (BF4T, 1.00E4 nM): -0.009
CCL2/MCP-1 (BF4T, 1.11E3 nM): -0.045
CCL26/Eotaxin-3 (BF4T, 1.11E3 nM): -0.209
CD54/ICAM-1 (BF4T, 1.11E3 nM): -0.086
CD90 (BF4T, 1.11E3 nM): -0.00131
CD106/VCAM-1 (BF4T, 1.11E3 nM): -0.021
CXCL8/IL-8 (BF4T, 1.11E3 nM): -0.056
IL-1alpha (BF4T, 1.11E3 nM): -0.038
Keratin 8/18 (BF4T, 1.11E3 nM): 0.020
MMP-1 (BF4T, 1.11E3 nM): -0.016
MMP-3 (BF4T, 1.11E3 nM): -0.0065
MMP-9 (BF4T, 1.11E3 nM): -0.011
PAI-I (BF4T, 1.11E3 nM): -0.00269
SRB (BF4T, 1.11E3 nM): 0.011
tPA (BF4T, 1.11E3 nM): 0.007
uPA (BF4T, 1.11E3 nM): -0.016
CCL2/MCP-1 (BF4T, 1.23E2 nM): -0.067
CCL26/Eotaxin-3 (BF4T, 1.23E2 nM): -0.191
CD54/ICAM-1 (BF4T, 1.23E2 nM): -0.058
CD90 (BF4T, 1.23E2 nM): -0.00126
CD106/VCAM-1 (BF4T, 1.23E2 nM): -0.012
CXCL8/IL-8 (BF4T, 1.23E2 nM): -0.021
IL-1alpha (BF4T, 1.23E2 nM): -0.020
Keratin 8/18 (BF4T, 1.23E2 nM): -0.022
MMP-1 (BF4T, 1.23E2 nM): 0.00135
MMP-3 (BF4T, 1.23E2 nM): -0.007
MMP-9 (BF4T, 1.23E2 nM): -0.047
PAI-I (BF4T, 1.23E2 nM): -0.013
SRB (BF4T, 1.23E2 nM): 0.00469
tPA (BF4T, 1.23E2 nM): 0.032
uPA (BF4T, 1.23E2 nM): 0.00319
CCL2/MCP-1 (BF4T, 1.37E1 nM): 0.00746
CCL26/Eotaxin-3 (BF4T, 1.37E1 nM): -0.134
CD54/ICAM-1 (BF4T, 1.37E1 nM): -0.057
CD90 (BF4T, 1.37E1 nM): -0.011
CD106/VCAM-1 (BF4T, 1.37E1 nM): -0.028
CXCL8/IL-8 (BF4T, 1.37E1 nM): -0.024
IL-1alpha (BF4T, 1.37E1 nM): -0.024
Keratin 8/18 (BF4T, 1.37E1 nM): -0.00271
MMP-1 (BF4T, 1.37E1 nM): -0.015
MMP-3 (BF4T, 1.37E1 nM): 0.049
MMP-9 (BF4T, 1.37E1 nM): -0.026
PAI-I (BF4T, 1.37E1 nM): -0.020
SRB (BF4T, 1.37E1 nM): 0.005
tPA (BF4T, 1.37E1 nM): 0.049
uPA (BF4T, 1.37E1 nM): 0.009
CCL2/MCP-1 (BF4T, 3.33E3 nM): -0.061
CCL26/Eotaxin-3 (BF4T, 3.33E3 nM): -0.184
CD54/ICAM-1 (BF4T, 3.33E3 nM): -0.074
CD90 (BF4T, 3.33E3 nM): 0.011
CD106/VCAM-1 (BF4T, 3.33E3 nM): 0.002
CXCL8/IL-8 (BF4T, 3.33E3 nM): -0.042
IL-1alpha (BF4T, 3.33E3 nM): -0.055
Keratin 8/18 (BF4T, 3.33E3 nM): -0.022
MMP-1 (BF4T, 3.33E3 nM): -0.012
MMP-3 (BF4T, 3.33E3 nM): -0.048
MMP-9 (BF4T, 3.33E3 nM): -0.00425
PAI-I (BF4T, 3.33E3 nM): -0.026
SRB (BF4T, 3.33E3 nM): 0.006
tPA (BF4T, 3.33E3 nM): 0.015
uPA (BF4T, 3.33E3 nM): -0.019
CCL2/MCP-1 (BF4T, 3.70E2 nM): -0.039
CCL26/Eotaxin-3 (BF4T, 3.70E2 nM): -0.177
CD54/ICAM-1 (BF4T, 3.70E2 nM): -0.076
CD90 (BF4T, 3.70E2 nM): -0.00567
CD106/VCAM-1 (BF4T, 3.70E2 nM): -0.004
CXCL8/IL-8 (BF4T, 3.70E2 nM): -0.042
IL-1alpha (BF4T, 3.70E2 nM): -0.090
Keratin 8/18 (BF4T, 3.70E2 nM): -0.012
MMP-1 (BF4T, 3.70E2 nM): -0.008
MMP-3 (BF4T, 3.70E2 nM): 0.015
MMP-9 (BF4T, 3.70E2 nM): -0.018
PAI-I (BF4T, 3.70E2 nM): 0.003
SRB (BF4T, 3.70E2 nM): 3.34e-5
tPA (BF4T, 3.70E2 nM): 0.027
uPA (BF4T, 3.70E2 nM): -0.022
CCL2/MCP-1 (BF4T, 4.12E1 nM): -0.019
CCL26/Eotaxin-3 (BF4T, 4.12E1 nM): -0.203
CD54/ICAM-1 (BF4T, 4.12E1 nM): -0.044
CD90 (BF4T, 4.12E1 nM): 0.0044
CD106/VCAM-1 (BF4T, 4.12E1 nM): -0.036
CXCL8/IL-8 (BF4T, 4.12E1 nM): -0.031
IL-1alpha (BF4T, 4.12E1 nM): -0.038
Keratin 8/18 (BF4T, 4.12E1 nM): 0.00849
MMP-1 (BF4T, 4.12E1 nM): -0.002
MMP-3 (BF4T, 4.12E1 nM): 0.027
MMP-9 (BF4T, 4.12E1 nM): -0.011
PAI-I (BF4T, 4.12E1 nM): -0.009
SRB (BF4T, 4.12E1 nM): 0.000731
tPA (BF4T, 4.12E1 nM): 0.025
uPA (BF4T, 4.12E1 nM): -0.00027
CCL2/MCP-1 (BF4T, 4.57E0 nM): 0.041
CCL26/Eotaxin-3 (BF4T, 4.57E0 nM): -0.086
CD54/ICAM-1 (BF4T, 4.57E0 nM): -0.034
CD90 (BF4T, 4.57E0 nM): -0.000153
CD106/VCAM-1 (BF4T, 4.57E0 nM): -0.018
CXCL8/IL-8 (BF4T, 4.57E0 nM): 0.024
IL-1alpha (BF4T, 4.57E0 nM): -0.020
Keratin 8/18 (BF4T, 4.57E0 nM): -0.00266
MMP-1 (BF4T, 4.57E0 nM): 0.000794
MMP-3 (BF4T, 4.57E0 nM): 0.054
MMP-9 (BF4T, 4.57E0 nM): -0.023
PAI-I (BF4T, 4.57E0 nM): 0.019
SRB (BF4T, 4.57E0 nM): -0.008
tPA (BF4T, 4.57E0 nM): 0.057
uPA (BF4T, 4.57E0 nM): -0.00538
B cell Proliferation (BT, 1.00E4 nM): -0.013
PBMC Cytotoxicity (BT, 1.00E4 nM): -0.020
Secreted IgG (BT, 1.00E4 nM): -0.332
sIL-2 (BT, 1.00E4 nM): 0.00561
sIL-6 (BT, 1.00E4 nM): -0.027
sIL-17A (BT, 1.00E4 nM): 0.321
sIL-17F (BT, 1.00E4 nM): -0.397
